≈ marks a conversion by molar mass, not a printed value. Calls of active or inactive are those of the source. No cut-off for these calls is given here.
What was measured:
[1] = Thermodynamic solubility in aqueous buffer at pH 7.4; assay type: physicochemical; conditions: read-out: Therm_solubility
[2] = AUC in Sprague-Dawley rat at 2 mg/kg, po by LC/MS/MS analysis; assay type: ADME, organism-based; set-up: dose 2 mg/kg, route oral; conditions: plasma
[3] = biological target: Cytochrome P450 2C9 (Homo sapiens, UniProt P11712)
Cytochrome P450 2C9, sequence (P11712 whole entry): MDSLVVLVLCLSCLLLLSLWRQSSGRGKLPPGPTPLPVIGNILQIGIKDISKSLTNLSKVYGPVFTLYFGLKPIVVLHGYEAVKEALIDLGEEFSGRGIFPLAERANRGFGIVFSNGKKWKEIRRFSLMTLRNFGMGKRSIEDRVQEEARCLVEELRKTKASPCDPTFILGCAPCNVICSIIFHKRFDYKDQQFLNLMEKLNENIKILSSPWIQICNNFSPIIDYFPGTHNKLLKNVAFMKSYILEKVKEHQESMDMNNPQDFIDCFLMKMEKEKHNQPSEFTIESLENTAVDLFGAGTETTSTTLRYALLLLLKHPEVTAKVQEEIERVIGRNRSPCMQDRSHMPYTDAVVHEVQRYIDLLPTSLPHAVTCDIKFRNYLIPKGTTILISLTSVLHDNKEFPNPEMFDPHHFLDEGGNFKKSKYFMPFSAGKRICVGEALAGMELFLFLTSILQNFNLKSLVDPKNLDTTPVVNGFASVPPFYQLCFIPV

[4] = Plasma protein binding in cynomolgus monkey; assay type: ADME, cell-free, Macaca fascicularis; conditions: read-out: PPB (converted)
[5] = biological target: T1, Tyrosine-protein kinase JAK1 (Homo sapiens, UniProt P23458)
T1 sequence (P23458 whole entry): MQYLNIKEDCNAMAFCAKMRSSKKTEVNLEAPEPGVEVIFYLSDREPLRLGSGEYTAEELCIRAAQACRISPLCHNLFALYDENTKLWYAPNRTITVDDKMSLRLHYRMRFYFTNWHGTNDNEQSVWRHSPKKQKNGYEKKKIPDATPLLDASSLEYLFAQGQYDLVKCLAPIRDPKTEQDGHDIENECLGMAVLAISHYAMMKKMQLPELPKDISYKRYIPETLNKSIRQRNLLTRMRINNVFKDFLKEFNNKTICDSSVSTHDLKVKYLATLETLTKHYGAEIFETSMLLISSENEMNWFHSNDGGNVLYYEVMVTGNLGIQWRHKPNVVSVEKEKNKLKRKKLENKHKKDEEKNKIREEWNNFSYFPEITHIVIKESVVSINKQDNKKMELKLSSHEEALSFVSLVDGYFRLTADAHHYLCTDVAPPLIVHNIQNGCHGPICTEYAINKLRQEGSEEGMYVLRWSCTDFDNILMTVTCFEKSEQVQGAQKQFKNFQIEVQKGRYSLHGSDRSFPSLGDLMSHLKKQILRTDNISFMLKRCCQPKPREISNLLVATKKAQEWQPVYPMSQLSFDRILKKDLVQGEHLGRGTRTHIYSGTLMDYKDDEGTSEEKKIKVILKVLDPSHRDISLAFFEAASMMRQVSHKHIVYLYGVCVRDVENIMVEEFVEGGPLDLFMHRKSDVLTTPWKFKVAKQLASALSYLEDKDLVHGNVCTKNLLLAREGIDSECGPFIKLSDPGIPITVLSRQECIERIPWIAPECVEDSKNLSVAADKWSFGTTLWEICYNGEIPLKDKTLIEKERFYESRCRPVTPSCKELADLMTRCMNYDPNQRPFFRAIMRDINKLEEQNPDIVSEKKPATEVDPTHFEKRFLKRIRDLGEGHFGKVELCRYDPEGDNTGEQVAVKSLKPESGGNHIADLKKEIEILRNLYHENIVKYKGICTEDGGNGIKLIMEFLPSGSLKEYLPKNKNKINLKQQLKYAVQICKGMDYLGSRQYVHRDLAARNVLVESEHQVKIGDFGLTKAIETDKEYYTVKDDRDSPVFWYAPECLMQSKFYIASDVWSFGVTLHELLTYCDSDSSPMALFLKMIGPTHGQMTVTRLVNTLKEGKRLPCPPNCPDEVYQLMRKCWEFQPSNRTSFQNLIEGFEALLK

[6] = Cmax in Sprague-Dawley rat at 2 mg/kg, po by LC/MS/MS analysis; assay type: ADME, organism-based; set-up: dose 2 mg/kg, route oral; conditions: in vivo
[7] = Apparent permeability across basolateral to apical side in dog MDCK cells; assay type: ADME, cell-based, Canis lupus familiaris
[8] = Plasma protein binding in dog; assay type: ADME, cell-free, Canis lupus familiaris; conditions: read-out: PPB (converted)
[9] = biological target: T2, Cytochrome P450 3A4 (Homo sapiens, UniProt P08684); experiment: Reversible inhibition of CYP3A4 in human liver microsomes using testosterone as substrate by LC/MS/MS analysis; assay type: ADME, Microsome
T2 sequence (P08684 whole entry): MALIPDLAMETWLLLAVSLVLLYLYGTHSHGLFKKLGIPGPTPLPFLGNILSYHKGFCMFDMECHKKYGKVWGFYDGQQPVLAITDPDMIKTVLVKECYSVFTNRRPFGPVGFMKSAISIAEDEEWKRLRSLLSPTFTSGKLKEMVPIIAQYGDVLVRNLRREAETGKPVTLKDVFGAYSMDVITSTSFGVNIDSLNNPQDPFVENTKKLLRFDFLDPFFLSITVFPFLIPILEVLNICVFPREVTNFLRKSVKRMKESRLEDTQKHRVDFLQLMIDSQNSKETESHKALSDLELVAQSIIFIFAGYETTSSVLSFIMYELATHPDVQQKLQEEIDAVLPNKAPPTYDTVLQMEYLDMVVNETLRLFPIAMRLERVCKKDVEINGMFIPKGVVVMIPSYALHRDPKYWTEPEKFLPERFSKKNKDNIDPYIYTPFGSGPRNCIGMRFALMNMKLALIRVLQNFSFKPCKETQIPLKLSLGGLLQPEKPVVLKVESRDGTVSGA

[10] = biological target: Tyrosine-protein kinase JAK3 (Homo sapiens, UniProt P52333)
Tyrosine-protein kinase JAK3, sequence (P52333 whole entry): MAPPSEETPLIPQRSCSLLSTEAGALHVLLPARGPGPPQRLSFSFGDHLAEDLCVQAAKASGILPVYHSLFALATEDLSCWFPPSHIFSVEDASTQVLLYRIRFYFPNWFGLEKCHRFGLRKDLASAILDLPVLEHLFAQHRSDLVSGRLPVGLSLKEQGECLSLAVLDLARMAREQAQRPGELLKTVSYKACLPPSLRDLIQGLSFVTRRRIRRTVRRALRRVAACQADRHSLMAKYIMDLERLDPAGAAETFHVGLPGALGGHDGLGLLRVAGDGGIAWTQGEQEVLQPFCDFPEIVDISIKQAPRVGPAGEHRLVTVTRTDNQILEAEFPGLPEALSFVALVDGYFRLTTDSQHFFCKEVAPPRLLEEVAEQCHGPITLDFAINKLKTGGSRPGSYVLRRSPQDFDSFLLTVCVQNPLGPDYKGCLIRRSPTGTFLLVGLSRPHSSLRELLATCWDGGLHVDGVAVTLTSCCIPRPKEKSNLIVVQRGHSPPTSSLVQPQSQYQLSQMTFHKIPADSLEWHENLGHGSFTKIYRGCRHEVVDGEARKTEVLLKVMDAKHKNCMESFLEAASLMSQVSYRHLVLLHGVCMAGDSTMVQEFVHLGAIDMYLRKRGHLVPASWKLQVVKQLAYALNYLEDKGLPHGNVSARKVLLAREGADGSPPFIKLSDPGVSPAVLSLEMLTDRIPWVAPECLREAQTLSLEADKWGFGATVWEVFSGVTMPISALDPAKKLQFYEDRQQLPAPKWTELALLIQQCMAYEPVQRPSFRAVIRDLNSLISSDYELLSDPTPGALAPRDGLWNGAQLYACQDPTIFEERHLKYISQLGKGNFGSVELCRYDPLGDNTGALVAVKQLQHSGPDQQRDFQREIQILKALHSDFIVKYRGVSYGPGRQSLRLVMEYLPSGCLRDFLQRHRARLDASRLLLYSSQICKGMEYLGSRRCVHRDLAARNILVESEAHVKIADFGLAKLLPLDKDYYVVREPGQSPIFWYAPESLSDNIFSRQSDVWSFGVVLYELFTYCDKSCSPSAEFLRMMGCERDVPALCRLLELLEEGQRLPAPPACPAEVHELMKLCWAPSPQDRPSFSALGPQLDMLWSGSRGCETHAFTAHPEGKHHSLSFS

[11] = Metabolic stability in rat hepatocytes assessed as hepatic clearance; assay type: ADME, cell-based, Liver, Hepatocyte
[12] = biological target: T1, Tyrosine-protein kinase JAK1; remark: listed apart in the source
[13] = Hepatic clearance in human hepatocytes after 1 to 4 hrs by LC/MS/MS analysis; assay type: ADME, cell-based, Liver, Hepatocyte
[14] = biological target: T1, Tyrosine-protein kinase JAK1; remark: listed apart in the source
[15] = Plasma protein binding in rat; assay type: ADME, cell-free; conditions: read-out: PPB (converted)
[16] = biological target: T3, Non-receptor tyrosine-protein kinase TYK2 (Homo sapiens, UniProt P29597)
T3 sequence (P29597 whole entry): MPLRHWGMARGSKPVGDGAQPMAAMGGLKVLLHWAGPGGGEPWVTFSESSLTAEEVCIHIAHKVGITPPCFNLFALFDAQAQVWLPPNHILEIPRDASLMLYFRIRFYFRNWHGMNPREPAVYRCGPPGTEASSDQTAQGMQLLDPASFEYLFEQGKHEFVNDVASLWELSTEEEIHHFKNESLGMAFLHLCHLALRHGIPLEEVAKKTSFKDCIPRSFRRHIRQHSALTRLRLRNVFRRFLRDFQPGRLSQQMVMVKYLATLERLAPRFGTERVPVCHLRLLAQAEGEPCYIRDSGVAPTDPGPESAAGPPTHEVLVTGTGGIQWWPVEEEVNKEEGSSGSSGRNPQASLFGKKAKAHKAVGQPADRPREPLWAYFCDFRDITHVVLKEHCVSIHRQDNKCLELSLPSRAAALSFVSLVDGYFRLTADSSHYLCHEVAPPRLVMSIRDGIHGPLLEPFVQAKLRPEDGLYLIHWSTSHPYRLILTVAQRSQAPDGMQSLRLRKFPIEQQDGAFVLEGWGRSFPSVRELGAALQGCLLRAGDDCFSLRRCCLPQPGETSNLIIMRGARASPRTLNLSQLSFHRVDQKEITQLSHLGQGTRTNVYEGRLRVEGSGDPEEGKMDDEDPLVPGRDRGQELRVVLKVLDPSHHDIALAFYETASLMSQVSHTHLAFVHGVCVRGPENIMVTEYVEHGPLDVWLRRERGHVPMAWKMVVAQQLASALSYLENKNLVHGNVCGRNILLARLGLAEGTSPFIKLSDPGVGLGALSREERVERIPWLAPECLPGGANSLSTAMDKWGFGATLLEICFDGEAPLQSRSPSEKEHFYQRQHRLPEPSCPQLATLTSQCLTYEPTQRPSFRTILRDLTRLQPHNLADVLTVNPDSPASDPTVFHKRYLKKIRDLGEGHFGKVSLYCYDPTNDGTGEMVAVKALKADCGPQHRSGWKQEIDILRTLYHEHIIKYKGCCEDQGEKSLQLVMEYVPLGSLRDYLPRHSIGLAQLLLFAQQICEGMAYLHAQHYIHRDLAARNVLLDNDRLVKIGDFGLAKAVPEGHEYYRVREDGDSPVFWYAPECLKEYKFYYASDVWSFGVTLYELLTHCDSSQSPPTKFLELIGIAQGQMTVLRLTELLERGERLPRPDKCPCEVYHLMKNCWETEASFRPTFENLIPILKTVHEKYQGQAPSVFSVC

[17] = Apparent permeability across apical to basolateral side in dog MDCK cells; assay type: ADME, cell-based, Canis lupus familiaris
[18] = biological target: T4, Cytochrome P450 1A2 (Homo sapiens, UniProt P05177); experiment: Reversible inhibition of CYP1A2 in human liver microsomes using phenacetin as substrate by LC/MS/MS analysis; assay type: ADME, Microsome
T4 sequence (P05177 whole entry): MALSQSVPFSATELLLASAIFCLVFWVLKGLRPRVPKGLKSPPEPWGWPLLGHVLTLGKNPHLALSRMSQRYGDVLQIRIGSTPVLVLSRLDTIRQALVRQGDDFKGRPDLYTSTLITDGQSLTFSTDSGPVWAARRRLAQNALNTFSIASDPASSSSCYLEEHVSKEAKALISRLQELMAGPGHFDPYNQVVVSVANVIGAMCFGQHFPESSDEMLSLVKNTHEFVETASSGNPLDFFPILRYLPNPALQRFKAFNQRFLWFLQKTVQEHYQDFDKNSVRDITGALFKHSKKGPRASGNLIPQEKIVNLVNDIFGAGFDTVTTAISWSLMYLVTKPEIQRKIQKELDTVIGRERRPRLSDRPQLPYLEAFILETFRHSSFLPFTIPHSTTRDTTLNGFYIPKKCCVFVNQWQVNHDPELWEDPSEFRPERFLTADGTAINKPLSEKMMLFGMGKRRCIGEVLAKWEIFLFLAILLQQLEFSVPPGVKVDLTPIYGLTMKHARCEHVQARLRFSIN

[19] = AUC in Beagle dog at 2 mg/kg, po by LC/MS/MS analysis; assay type: ADME, organism-based, Canis lupus familiaris; set-up: dose 2 mg/kg, route oral; conditions: plasma
[20] = Metabolic stability in dog hepatocytes assessed as hepatic clearance; assay type: ADME, cell-based, Canis lupus familiaris, Liver, Hepatocyte
[21] = Half life in Sprague-Dawley rat at 0.4 mg/kg, iv by LC/MS/MS analysis; assay type: ADME, organism-based; set-up: dose 0.4 mg/kg, route intravenous; conditions: in vivo
[22] = Clearance in Sprague-Dawley rat at 0.4 mg/kg, iv by LC/MS/MS analysis; assay type: ADME, organism-based; set-up: dose 0.4 mg/kg, route intravenous; conditions: in vivo
[23] = Half life in Beagle dog at 0.4 mg/kg, iv by LC/MS/MS analysis; assay type: ADME, organism-based, Canis lupus familiaris; set-up: dose 0.4 mg/kg, route intravenous; conditions: in vivo
[24] = Thermodynamic solubility in aqueous buffer at pH 2; assay type: physicochemical; conditions: read-out: Therm_solubility
[25] = biological target: T2, Cytochrome P450 3A4; experiment: Reversible inhibition of CYP3A4 in human liver microsomes using midazolam as substrate by LC/MS/MS analysis; assay type: ADME, Microsome
[26] = biological target: T3, Non-receptor tyrosine-protein kinase TYK2; remark: listed apart in the source
[27] = Hepatic clearance in human liver microsomes by LC/MS/MS analysis; assay type: ADME, Microsome
[28] = Clearance in Beagle dog at 0.4 mg/kg, iv by LC/MS/MS analysis; assay type: ADME, organism-based, Canis lupus familiaris; set-up: dose 0.4 mg/kg, route intravenous; conditions: in vivo
[29] = Cmax in Beagle dog at 2 mg/kg, po by LC/MS/MS analysis; assay type: ADME, organism-based, Canis lupus familiaris; set-up: dose 2 mg/kg, route oral; conditions: in vivo
[30] = Metabolic stability in monkey hepatocytes assessed as hepatic clearance; assay type: ADME, cell-based, Macaca mulatta, Liver, Hepatocyte; conditions: rhesus monkey
[31] = Oral bioavailability in Sprague-Dawley rat at 2 mg/kg by LC/MS/MS analysis; assay type: ADME, organism-based; conditions: Sprague-Dawley, in vivo
[32] = biological target: Cytochrome P450 2C19 (Homo sapiens, UniProt P33261)
[33] = system: Canis familiaris; experiment: (§1) Oral bioavailability in Beagle dog at 2 mg/kg by LC/MS/MS analysis; assay type: ADME, organism-based, Canis lupus familiaris; conditions: in vivo
[34] = biological target: Cytochrome P450 2D6 (Homo sapiens, UniProt P10635)
Cytochrome P450 2D6, sequence (P10635 whole entry): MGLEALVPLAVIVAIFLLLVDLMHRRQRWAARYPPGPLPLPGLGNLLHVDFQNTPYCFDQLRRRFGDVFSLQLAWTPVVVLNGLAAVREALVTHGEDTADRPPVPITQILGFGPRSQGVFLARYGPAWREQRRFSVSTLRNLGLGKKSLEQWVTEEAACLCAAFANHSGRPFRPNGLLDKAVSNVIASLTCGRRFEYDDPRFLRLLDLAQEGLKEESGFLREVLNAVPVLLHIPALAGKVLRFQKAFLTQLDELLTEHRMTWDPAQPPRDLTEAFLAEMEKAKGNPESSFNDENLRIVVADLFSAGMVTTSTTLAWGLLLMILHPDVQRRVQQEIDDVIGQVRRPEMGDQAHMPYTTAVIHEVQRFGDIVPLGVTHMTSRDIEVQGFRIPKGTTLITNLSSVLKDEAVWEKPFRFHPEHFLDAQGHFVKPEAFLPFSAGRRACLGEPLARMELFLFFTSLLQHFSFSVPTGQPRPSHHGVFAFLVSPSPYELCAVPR

[35] = AUC in Lewis rat collagen-induced arthritis model at 100 mg/kg, po administered on day 20; assay type: ADME, organism-based; set-up: dose 100 mg/kg, route oral; conditions: in vivo
[36] = system: Rattus norvegicus; experiment: Antiarthritic activity in Lewis rat collagen-induced arthritis model assessed as decrease in mean ankle thicknesses at 500 mg/kg, po qd administered for 11 days; assay type: functional, organism-based; set-up: dose 500 mg/kg
[37] = Clearance in cynomolgus monkey at 0.4 mg/kg, iv by LC/MS/MS analysis; assay type: ADME, organism-based, Macaca fascicularis; set-up: dose 0.4 mg/kg, route intravenous; conditions: in vivo
[38] = Cmax in cynomolgus monkey at 2 mg/kg, po by LC/MS/MS analysis; assay type: ADME, organism-based, Macaca fascicularis; set-up: dose 2 mg/kg, route oral; conditions: in vivo
[39] = AUC in cynomolgus monkey at 2 mg/kg, po by LC/MS/MS analysis; assay type: ADME, organism-based, Macaca fascicularis; set-up: dose 2 mg/kg, route oral; conditions: plasma
[40] = AUC in Lewis rat collagen-induced arthritis model at 20 mg/kg, po administered on day 10; assay type: ADME, organism-based; set-up: dose 20 mg/kg, route oral; conditions: in vivo
[41] = Half life in cynomolgus monkey at 0.4 mg/kg, iv by LC/MS/MS analysis; assay type: ADME, organism-based, Macaca fascicularis; set-up: dose 0.4 mg/kg, route intravenous; conditions: in vivo
[42] = Oral bioavailability in cynomolgus monkey at 2 mg/kg by LC/MS/MS analysis; assay type: ADME, organism-based, Macaca fascicularis; conditions: in vivo
[43] = AUC in Lewis rat collagen-induced arthritis model at 500 mg/kg, po administered on day 20; assay type: ADME, organism-based; set-up: dose 500 mg/kg, route oral; conditions: in vivo
[44] = system: Rattus norvegicus; experiment: Antiarthritic activity in Lewis rat collagen-induced arthritis model assessed as decrease in mean ankle thicknesses at 20 mg/kg, po qd administered for 11 days; assay type: functional, organism-based; set-up: dose 20 mg/kg
[45] = biological target: Voltage-gated inwardly rectifying potassium channel KCNH2 (Homo sapiens, UniProt Q12809)
[46] = AUC in Lewis rat collagen-induced arthritis model at 500 mg/kg, po administered on day 10; assay type: ADME, organism-based; set-up: dose 500 mg/kg, route oral; conditions: in vivo
[47] = AUC in Lewis rat collagen-induced arthritis model at 100 mg/kg, po administered on day 10; assay type: ADME, organism-based; set-up: dose 100 mg/kg, route oral; conditions: in vivo
[48] = system: Rattus norvegicus; experiment: Antiarthritic activity in Lewis rat collagen-induced arthritis model assessed as decrease in mean ankle thicknesses at 100 mg/kg, po qd administered for 11 days; assay type: functional, organism-based; set-up: dose 100 mg/kg
[49] = as §1; assay type: ADME, organism-based, Canis lupus familiaris; conditions: Beagle, in vivo
[50] = system: Platelet-derived growth factor receptor alpha (Homo sapiens), P16234 [V561D]; experiment: Inhibition of PDGFRalpha V561D mutant (unknown origin) at 1 uM
[51] = AUC in Lewis rat collagen-induced arthritis model at 20 mg/kg, po administered on day 20; assay type: ADME, organism-based; set-up: dose 20 mg/kg, route oral; conditions: in vivo

With C[C@@H](O)c1nc2cnc3[nH]ccc3c2n1[C@H]1CC[C@H](CC#N)CC1 the solubility thermodynamic [1] was 130 µM (≈ 42 µg/mL), the AUC [2] was 1.3 µM·h and the IC50 [3] was greater than 10000 nM. The fraction unbound [4] was 0.3, the EC50 [5] was 5.7 nM and the Cmax [6] was 930 nM. It also gave a Papp B→A [7] of 4.9 ×10⁻⁶ cm/s, a fraction unbound [8] of 0.37 and an IC50 [9] greater than 10000 nM. It also gave a Ki [10] of 5.9 nM, a CLhep predicted [11] of 15 mL/min/kg and an EC50 [12] of 28 nM. The CLhep predicted [13] was 6.8 mL/min/kg, the Ki [14] was 0.1 nM and the fraction unbound [15] was 0.37. It also gave a Ki [16] of 0.4 nM, a Papp A→B [17] of 3.5 ×10⁻⁶ cm/s and an IC50 [18] greater than 10000 nM. It also gave an AUC [19] of 11.2 µM·h, a CLhep predicted [20] of 12 mL/min/kg and a half-life [21] of 0.5 h. It also gave a clearance [22] of 38 mL/min/kg, a half-life [23] of 1.8 h and a solubility thermodynamic [24] greater than 4000 µM. It also gave an IC50 [25] of 8800 nM, an EC50 [26] of 100 nM and a CLhep predicted [27] of 5.2 mL/min/kg. The clearance [28] was 17 mL/min/kg, the Cmax [29] was 2500 nM and the CLhep predicted [30] was 25 mL/min/kg. The bioavailability [31] was 49%, the IC50 [32] was greater than 10000 nM and the F [33] was 183%. It also gave an IC50 [34] greater than 10000 nM.

C[C@@H](O)c1nc2cnc3[nH]ccc3c2n1[C@H]1CC[C@H](C#N)CC1 gave a solubility thermodynamic [1] of 1900 µM (≈ 588 µg/mL), an AUC [35] of 50.1 µM·h and an AUC [2] of 0.94 µM·h. For the same compound, the IC50 [3] was greater than 10000 nM, the Activity [36] was “Active” and the fraction unbound [4] was 0.4. For the same compound, the EC50 [5] was 120 nM, the clearance [37] was 18 mL/min/kg and the Cmax [6] was 420 nM. For the same compound, the Cmax [38] was 630 nM, the Papp B→A [7] was 4.7 ×10⁻⁶ cm/s and the AUC [39] was 3.9 µM·h. The fraction unbound [8] was 0.53, the AUC [40] was 15 µM·h and the IC50 [9] was greater than 10000 nM. It also gave a Ki [10] of 280 nM, a CLhep predicted [11] of 3.7 mL/min/kg and an EC50 [12] of 130 nM. The half-life [41] was 1.7 h, the bioavailability [42] was 65% and the CLhep predicted [13] was 1.7 mL/min/kg. For the same compound, the AUC [43] was 269 µM·h, the Ki [14] was 1.9 nM and the fraction unbound [15] was 0.62. For the same compound, the Activity [44] was “Active”, the IC50 [45] was greater than 100000 nM and the Ki [16] was 12 nM. The Papp A→B [17] was 2.7 ×10⁻⁶ cm/s, the AUC [46] was 467 µM·h and the IC50 [18] was greater than 10000 nM. It also gave an AUC [19] of 8.3 µM·h, a CLhep predicted [20] of 3 mL/min/kg and a half-life [21] of 0.5 h. It also gave a clearance [22] of 60 mL/min/kg, an AUC [47] of 59.6 µM·h and a half-life [23] of 2.2 h. For the same compound, the solubility thermodynamic [24] was greater than 4000 µM, the IC50 [25] was 7900 nM and the EC50 [26] was 5600 nM. For the same compound, the Activity [48] was “Active”, the CLhep predicted [27] was 3.3 mL/min/kg and the clearance [28] was 16 mL/min/kg. For the same compound, the Cmax [29] was 2100 nM, the CLhep predicted [30] was 2.4 mL/min/kg and the bioavailability [31] was 52%. For the same compound, the IC50 [32] was greater than 10000 nM, the bioavailability [49] was 119% and the IC50 [34] was greater than 10000 nM. For the same compound, the inhibition [50] was 55% and the AUC [51] was 10.6 µM·h.
